Assay results: US20260364088A1, “TASL MIMICKING MOLECULES AND APPLICATIONS THEREOF” (CEMM - FORSCHUNGSZENTRUM FÜR MOLEKULARE MEDIZIN GMBH, priority 2022, published 2026)
Where two headings read alike, the source gives them in different places.

Target: T1, THP1 dual cell (Homo sapiens, UniProt Q8N697)
T1 construct: R848 (TLR7/8)-stimulated ISRE reporter
Test: THP1 DUAL/ISRE cell reporter assay (R848 stimulated)
Type: cell-based
Description: CAL-1, THP1 or human primary cells were incubated with dTASL1 and other identified compounds (or the corresponding volume of DMSO vehicle) for 24 h or 48 h at the indicated concentration and subsequently stimulated with R848 (5 μg/ml) for the indicated time. Supernatant or cells were recovered for ELISA, SDS-PAGE or microscopy-based analysis.
THP1 DUAL cells (1×10^5 cells per 96 well) were incubated with compounds for 24 h or 48 h, and subsequently stimulated for 20 h as indicated. Cell culture supernatant were collected, cleared of residual cells by centrifugation and analyzed for NF-κB and ISRE reporter activity according to the manufacturer's instructions. For experiments in 384-well format, compounds were pre-plated at defined concentrations and THP1 dual cells were added at 800 k/well concentration in […]. After incubation for 24 h or 48 h cells were stimulated with […] of a 25 μg/ml stock of R848 or 0.5 μg/ml Pam3CKS4 5× stocks as indicated for 20 h and detected by directly adding Quanti-Luc Plus (Invivogen) solution to the plates, according to the manufacturer's instructions and without adding stabilizer solution. Quanti-Blue detection was carried out according to the manifacturers instructions, with QB reagent and buffer (Invivogen) dissolved in 30 ml water, instead of the 100 ml used for standard detection.
Based on potency and kinetics, the compound C5 was selected for further characterization (FIG. 2E). C5 is an elongated molecule comprised of an aromatic 2-(4-ethoxyphenyl)-quinoline moiety followed by an amide bond and an aliphatic 2-methyl-1-propylpiperidine (FIG. 2F). To validate the scaffold and explore the chemical space at the aliphatic end of the compound, five analogues and an independently synthesized batch of C5 were obtained. […] Therefore the C5 compound was selected, which was named dTASL1 as its activity leads to TASL degradation, to assess effects on TLR7/8-induced signaling and responses.
The following compounds were assayed for their activity in the degradation assay (THP1 DUAL/ISRE cell reporter assay), as described herein: […]

[1] = 24 h treatment before R848 stimulation, read-out: IC50 24 h
[2] = 48 h treatment before R848 stimulation, read-out: IC50 48 h

T1 sequence (Q8N697 whole entry): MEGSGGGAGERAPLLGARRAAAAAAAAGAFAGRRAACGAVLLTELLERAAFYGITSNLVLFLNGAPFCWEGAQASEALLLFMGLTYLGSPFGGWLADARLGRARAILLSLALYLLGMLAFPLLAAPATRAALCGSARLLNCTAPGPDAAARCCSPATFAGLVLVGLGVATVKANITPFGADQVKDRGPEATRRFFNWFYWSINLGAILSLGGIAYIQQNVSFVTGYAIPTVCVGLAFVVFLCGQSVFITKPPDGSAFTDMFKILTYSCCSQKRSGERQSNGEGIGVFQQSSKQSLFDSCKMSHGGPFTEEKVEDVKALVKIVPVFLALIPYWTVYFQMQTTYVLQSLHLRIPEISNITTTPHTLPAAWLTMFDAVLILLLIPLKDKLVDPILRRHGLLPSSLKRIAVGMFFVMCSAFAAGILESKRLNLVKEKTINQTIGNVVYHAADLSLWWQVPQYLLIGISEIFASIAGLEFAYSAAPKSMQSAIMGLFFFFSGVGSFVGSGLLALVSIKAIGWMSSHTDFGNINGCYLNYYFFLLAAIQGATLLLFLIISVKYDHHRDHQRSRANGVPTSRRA

SMILES	IC50 [1]	IC50 [2]
CCOc1ccc(-c2cc(C(=O)NCCCN3CCCCCC3)c3ccccc3n2)cc1 [dTASL1-a2]	3.49 µM	2.96 µM
CCOc1ccc(-c2cc(C(=O)NCCCN3CCCCC3)c3ccccc3n2)cc1 [dTASL1-a4]	4.16 µM	2.39 µM
